{"source": "patent US20040234509A1", "about": "“Replacing liver cells with bone marrow-derived cells for treating disease and expressing therapeutic genes” (priority 2002, published 2004)", "tested_on": "Kupffer cells", "test": "Kupffer cell replacement in mice: gadolinium chloride followed by GFP bone marrow stem cells", "format": "in vivo, C57BL/6 mice", "experimental": "Bone marrow derived from C57BL/6-TgN(ACTbEGFP)10sb mice was injected into the tail vein of recipient C57BL/6 mice. Recipient mice were separated into two groups. One group received saline injection the other received gadolinium chloride (20-60 mg/kg i.v.: ICN Biomedicals, Aurora, Ohio) 24 hours before they received the bone marrow cells obtained from C57BL/6-TgN (ACTbEGFP) 10sb mice. The amount of bone marrow cells administered varied between 2×10^6 to 100×10^6 cells/animal. Mice were sacrificed 2 weeks after the stem cells were injected and livers were removed, fixed and prepared for fluorescent microscopy.\nC57BL/6 mice were injected with 60 mg/Kg of gadolinium chloride 24 hours before injecting stem cells intravenously.", "key": {"[1]": {"conditions": "60 mg/Kg gadolinium chloride 24 hours before stem cells i.v., two weeks after injection"}}}
{"smiles": "[Cl][Gd]([Cl])[Cl]", "note": "[gadolinium chloride]", "values": [{"measurement": "GFP labeled Kupffer cells in liver, 10×10^6 stem cells vs 2×10^6 stem cells", "setting": "[1]", "value": "many more GFP labeled Kupffer cells"}, {"measurement": "number of GFP-labeled Kupffer cells, 100×10^6 stem cells vs 10×10^6 stem cells", "setting": "[1]", "value": "did not significantly increase the number of GFP-labeled Kupffer cells"}, {"measurement": "survival / evidence of toxicity", "setting": "C57BL/6 mice, gadolinium chloride 20-60 mg/kg i.v. plus 2×10^6 to 100×10^6 bone marrow cells/animal, 2 weeks", "value": "All mice survived and none showed evidence of any toxicity"}, {"measurement": "GFP-fluorescent Kupffer cells in liver (fluorescent microscopy)", "setting": "gadolinium chloride 20-60 mg/kg i.v. 24 hours before bone marrow cells from TgN(ACTbEGFP)1Osb mice, livers 2 weeks after stem cells, vs saline control", "value": "contained many GFP-fluorescent Kupffer cells"}]}
